Laboratory results reported in PMC6934184, “Selective DNA-PKcs inhibition extends the therapeutic index of localized radiotherapy and chemotherapy” (The Journal of Clinical Investigation, 2019).

Target: T1, RPS6KB1 (p70S6K) (Homo sapiens, UniProt P23443)
T1 construct: purchased Thermo Fisher Scientific (Life Technologies) SelectScreen
Assay: SelectScreen Z'LYTE
Format: biochemical
Procedure, shortened: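 NU5455 was profiled across the SelectScreen Broad panel of kinase activity and binding assays. Z'LYTE reactions such as CSF1R ran at apparent Km ATP, while the Adapta CAMK1 assay used ATP listed as 10. Values are given as percent.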

T1 sequence (P23443 whole entry): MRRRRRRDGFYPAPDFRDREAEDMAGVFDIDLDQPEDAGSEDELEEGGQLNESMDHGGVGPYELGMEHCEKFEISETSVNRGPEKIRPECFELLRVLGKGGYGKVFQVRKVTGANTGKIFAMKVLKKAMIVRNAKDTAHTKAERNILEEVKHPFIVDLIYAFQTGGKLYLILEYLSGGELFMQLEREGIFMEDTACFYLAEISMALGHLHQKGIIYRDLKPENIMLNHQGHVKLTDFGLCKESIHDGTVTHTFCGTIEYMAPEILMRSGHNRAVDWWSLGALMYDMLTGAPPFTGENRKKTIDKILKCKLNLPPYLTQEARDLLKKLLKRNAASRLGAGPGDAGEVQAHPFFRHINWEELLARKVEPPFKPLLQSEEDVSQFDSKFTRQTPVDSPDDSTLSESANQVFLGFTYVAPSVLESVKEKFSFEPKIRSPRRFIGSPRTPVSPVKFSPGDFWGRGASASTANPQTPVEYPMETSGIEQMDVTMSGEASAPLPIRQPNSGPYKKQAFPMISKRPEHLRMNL

CN(C(=O)CN1CCOCC1)c1ccc2sc3c(-c4cccc5c(=O)cc(N6CC7CCC(C6)O7)oc45)cccc3c2c1 [NU5455]
inhibition at 1 µM: -7.8%
